Measured values published in patent US11006631B2, “Substituted pyrimidinyloxy pyridine derivatives as herbicides” (FMC Corporation, priority 2015, dated 2021).

Experiments:
Assay type in all cases: in vivo
[1] = system: johnsongrass (Sorghum halepense); assay: Test C postemergence, johnsongrass
Text: (§1) Seeds of plant species selected from blackgrass (Alopecurus myosuroides), ryegrass, Italian (Italian ryegrass, Lolium multiflorum), wheat (winter wheat, Triticum aestivum), galium (catchweed bedstraw, Galium aparine), corn (Zea mays), crabgrass, large (large crabgrass, Digitaria sanguinalis), foxtail, giant (giant foxtail, Setaria faberii), lambsquarters (Chenopodium album), morningglory (Ipomoea coccinea), nutsedge, yellow (yellow nutsedge, Cyperus esculentus), pigweed (Amaranthus retroflexus), johnsongrass (Sorghum halepense), ragweed (common ragweed, Ambrosia elatior), soybean (Glycine max), barnyardgrass (Echinochloa crus-galli), oilseed rape (Brassica napus), waterhemp (common waterhemp, Amaranthus rudis), chickweed (common chickweed, Stellaria media), oat, wild (wild oat, Avena fatua), kochia (Kochia scoparia), and velvetleaf (Abutilon theophrasti) were planted in pots containing Redi-Earth® planting medium (Scotts Company, 14111 Scottslawn Road, Marysville, Ohio 43041) comprising spaghnum peat moss, vermiculite, wetting agent and starter nutrients and treated with postemergence applications of a test chemical formulated in a non-phytotoxic solvent mixture which included a surfactant. Plants ranged in height from 2 to 18 cm (1- to 4-leaf stage) for postemergence treatments. Treated plants and controls were maintained in a greenhouse for 13 to 15 days, after which time all species were compared to controls and visually evaluated. Plant response ratings, summarized in Table C, are based on a scale of 0 to 100 where 0 is no effect and 100 is complete control. A dash (-) response means no test result.

[2] = system: sedge, umbrella (small-flower umbrella sedge, Cyperus difformis); assay: Test B flooded paddy test, sedge, umbrella; conditions: Flood, 250 g ai/ha; scale of 0 to 100
How it was run: (§2)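 Visual ratings from 0, meaning no effect, up to 100, meaning complete control, were made by comparison with untreated controls 13 to 15 days after treatment. Test compounds went straight into floodwater standing 3 cm over the soil of pots holding 2-leaf seedlings.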

[3] = system: barnyardgrass (Echinochloa crus-galli); assay: Test A postemergence, barnyardgrass; conditions: 0 to 100 scale
How it was run: (§3)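 Plants are sown in a loam soil and sand blend, then treated with formulated compound either preemergence by directed soil spray or postemergence at one- to two-leaf stage. After approximately 10 days, injury is judged visually against untreated controls using a 0 to 100 control scale.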

[4] = system: ryegrass, Italian (Italian ryegrass, Lolium multiflorum); assay: Test A preemergence, ryegrass, Italian; conditions: 0 to 100 scale
Text: (§4) Seeds of plant species selected from bamyardgrass (Echinochloa crus-galli), kochia (Kochia scoparia), ragweed (common ragweed, Ambrosia elatior), ryegrass, Italian (Italian ryegrass, Lolium multiflorum), foxtail, giant (giant foxtail, Setaria faberii), pigweed (Amaranthus retroflexus), crabgrass, large (large crabgrass, Digitaria sanguinalis), momingglory (Ipomoea spp.), velvetleaf (Abutilon theophrasti), wheat (Triticum aestivum), and corn (Zea mays) were planted into a blend of loam soil and sand and treated preemergence with a directed soil spray using test chemicals formulated in a non-phytotoxic solvent mixture which included a surfactant. At the same time, plants selected from these crop and weed species and also blackgrass (Alopecurus myosuroides), and galium (catchweed bedstraw, Galium aparine) were planted in pots containing the same blend of loam soil and sand and treated with postemergence applications of test chemicals formulated in the same manner. Plants ranged in height from 2 to 10 cm and were in the one- to two-leaf stage for the postemergence treatment. Treated plants and untreated controls were maintained in a greenhouse for approximately 10 days, after which time all treated plants were compared to untreated controls and visually evaluated for injury. Plant response ratings, summarized in Table A, are based on a 0 to 100 scale where 0 is no effect and 100 is complete control. A dash (-) response means no test result.

[5] = system: oat, wild (wild oat, Avena fatua); assay: Test C postemergence, oat, wild
Text: as §1

[6] = system: velvetleaf (Abutilon theophrasti); assay: Test C postemergence, velvetleaf
Text: as §1

[7] = system: morningglory (Ipomoea coccinea); assay: Test C postemergence, morningglory
Text: as §1

[8] = system: ryegrass, Italian (Italian ryegrass, Lolium multiflorum); assay: Test C postemergence, ryegrass, Italian
Text: as §1

rice (Oryza sativa) = assay: Test B flooded paddy test, rice; conditions: Flood, 250 g ai/ha; scale of 0 to 100
How it was run: as §2

[9] = system: lambsquarters (Chenopodium album); assay: Test C postemergence, lambsquarters
Text: as §1

[10] = system: barnyardgrass (Echinochloa crus-galli); assay: Test A preemergence, barnyardgrass; conditions: 0 to 100 scale
How it was run: as §3

kochia (Kochia scoparia) [11] = assay: Test A postemergence, kochia; conditions: 0 to 100 scale
Text: as §4

kochia (Kochia scoparia) [12] = assay: Test A preemergence, kochia; conditions: 0 to 100 scale
Text: as §4

[13] = system: ragweed (common ragweed, Ambrosia elatior); assay: Test C postemergence, ragweed
Text: as §1

[14] = system: blackgrass (Alopecurus myosuroides); assay: Test C postemergence, blackgrass
Text: as §1

[15] = system: chickweed (common chickweed, Stellaria media); assay: Test C postemergence, chickweed
Text: as §1

[16] = system: barnyardgrass (Echinochloa crus-galli); assay: Test C postemergence, barnyardgrass
Text: as §1

kochia (Kochia scoparia) [17] = assay: Test C postemergence, kochia
Text: as §1

FC(F)c1cc(-c2ncccc2Oc2ncc(Cl)cn2)on1 [Compound 5, 5-chloro-2-[[2-[3-(difluoromethyl)-5-isoxazolyl]-3-pyridinyl]oxy]pyrimidine]
Plant response rating, Johnsongrass ([1]; 16 g ai/ha): 0
Plant response rating, Johnsongrass ([1]; 31 g ai/ha): 0
Plant response rating, Johnsongrass ([1]; 62 g ai/ha): 5
Plant response rating, Johnsongrass ([1]; 125 g ai/ha): 10
Plant response rating, Sedge, Umbrella [2]: 80
Plant response rating, Barnyardgrass ([3]; 31 g ai/ha): 0
Plant response rating, Barnyardgrass ([3]; 125 g ai/ha): 20
Plant response rating, Ryegrass, Italian ([4]; 31 g ai/ha): 0
Plant response rating, Ryegrass, Italian ([4]; 125 g ai/ha): 0
Plant response rating, Oat, Wild ([5]; 16 g ai/ha): 0
Plant response rating, Oat, Wild ([5]; 31 g ai/ha): 0
Plant response rating, Oat, Wild ([5]; 62 g ai/ha): 0
Plant response rating, Oat, Wild ([5]; 125 g ai/ha): 5
Plant response rating, Velvetleaf ([6]; 16 g ai/ha): 40
Plant response rating, Velvetleaf ([6]; 31 g ai/ha): 50
Plant response rating, Velvetleaf ([6]; 62 g ai/ha): 70
Plant response rating, Velvetleaf ([6]; 125 g ai/ha): 60
Plant response rating, Morningglory ([7]; 16 g ai/ha): 75
Plant response rating, Morningglory ([7]; 31 g ai/ha): 65
Plant response rating, Morningglory ([7]; 62 g ai/ha): 65
Plant response rating, Morningglory ([7]; 125 g ai/ha): 85
Plant response rating, Ryegrass, Italian ([8]; 16 g ai/ha): 0
Plant response rating, Ryegrass, Italian ([8]; 31 g ai/ha): 5
Plant response rating, Ryegrass, Italian ([8]; 62 g ai/ha): 0
Plant response rating, Ryegrass, Italian ([8]; 125 g ai/ha): 5
Plant response rating, Rice (rice (Oryza sativa)): 0
Plant response rating, Lambsquarters ([9]; 16 g ai/ha): 35
Plant response rating, Lambsquarters ([9]; 31 g ai/ha): 70
Plant response rating, Lambsquarters ([9]; 62 g ai/ha): 55
Plant response rating, Lambsquarters ([9]; 125 g ai/ha): 60
Plant response rating, Barnyardgrass ([10]; 31 g ai/ha): 0
Plant response rating, Barnyardgrass ([10]; 125 g ai/ha): 20
Plant response rating, Kochia (kochia (Kochia scoparia) [11]; 31 g ai/ha): 80
Plant response rating, Kochia (kochia (Kochia scoparia) [11]; 125 g ai/ha): 90
Plant response rating, Kochia (kochia (Kochia scoparia) [12]; 31 g ai/ha): 10
Plant response rating, Kochia (kochia (Kochia scoparia) [12]; 125 g ai/ha): 80
Plant response rating, Ragweed ([13]; 16 g ai/ha): 5
Plant response rating, Ragweed ([13]; 31 g ai/ha): 40
Plant response rating, Ragweed ([13]; 62 g ai/ha): 35
Plant response rating, Ragweed ([13]; 125 g ai/ha): 65
Plant response rating, Blackgrass ([14]; 16 g ai/ha): 0
Plant response rating, Blackgrass ([14]; 31 g ai/ha): 0
Plant response rating, Blackgrass ([14]; 62 g ai/ha): 0
Plant response rating, Blackgrass ([14]; 125 g ai/ha): 5
Plant response rating, Chickweed ([15]; 16 g ai/ha): 35
Plant response rating, Chickweed ([15]; 31 g ai/ha): 40
Plant response rating, Chickweed ([15]; 62 g ai/ha): 55
Plant response rating, Chickweed ([15]; 125 g ai/ha): 60
Plant response rating, Barnyardgrass ([16]; 16 g ai/ha): 0
Plant response rating, Barnyardgrass ([16]; 31 g ai/ha): 0
Plant response rating, Barnyardgrass ([16]; 62 g ai/ha): 5
Plant response rating, Barnyardgrass ([16]; 125 g ai/ha): 10
Plant response rating, Kochia (kochia (Kochia scoparia) [17]; 16 g ai/ha): 90
Plant response rating, Kochia (kochia (Kochia scoparia) [17]; 31 g ai/ha): 90
Plant response rating, Kochia (kochia (Kochia scoparia) [17]; 62 g ai/ha): 90
Plant response rating, Kochia (kochia (Kochia scoparia) [17]; 125 g ai/ha): 90
